According to publication PMC7073229, “Novel Quinoline Compounds Active in Cancer Cells through Coupled DNA Methyltransferase Inhibition and Degradation” (Cancers, 2020):

Key:
Experiment in all cases: Kinase inhibitory assay (panel)
Assay type in all cases: biochemical
Settings in all cases: read-out: % inhibition at 10 µM
FGFR2 kinase (h) = FGFR2 kinase (h) (Homo sapiens, UniProt P21802)
Experimental: (§1) Experimental procedure of kinase inhibitory assays
(§2) The test compound, reference compound or water (control) were mixed with the enzyme (for the exact amount see table below) in the appropriate buffer. Thereafter, the reaction was initiated by adding the required amount of the appropriate substrate and of ATP, and the mixture is incubated at room temperature (variable reaction time, see table below). For control basal measurements, the enzyme was omitted from the reaction mixture. Following incubation, the reaction was stopped by adding 13 mM
(§3) EDTA. After 5 min, the proper antibody labelled with europium chelate was added. After 60 more min, the fluorescence transfer was measured at λex=337 nm, λem=620 nm and λem=665 nm using a microplate reader (Envision, Perkin Elmer). The enzyme activity was determined by d ividing the signal measured at 665 nm by that measured at 620 nm (ratio). The results are expressed as a percent inhibition of the control enzyme activity. The standard inhibitory reference compound is staurosporine when not differently indicated (see tabl e below), which has been tested in each experiment at several concentrations to obtain an inhibition curve from which its IC 50 value is calculated.
(§4) • Assay volume and format: 10 µL in 384-well plate
(§5) • Compound addition: [100x] solution in solvent then [5x] solution in water • Maximum tolerable DMSO concentration: 1%

AurA/Aur2 kinase (h) = AurA/Aur2 kinase (h) (Homo sapiens, UniProt O14965)
Experimental: as §1, §2, §3, §4, §5

p38alpha kinase (h) = p38alpha kinase (h) (Homo sapiens, UniProt Q16539)
p38alpha kinase (h), sequence (Q16539 whole entry): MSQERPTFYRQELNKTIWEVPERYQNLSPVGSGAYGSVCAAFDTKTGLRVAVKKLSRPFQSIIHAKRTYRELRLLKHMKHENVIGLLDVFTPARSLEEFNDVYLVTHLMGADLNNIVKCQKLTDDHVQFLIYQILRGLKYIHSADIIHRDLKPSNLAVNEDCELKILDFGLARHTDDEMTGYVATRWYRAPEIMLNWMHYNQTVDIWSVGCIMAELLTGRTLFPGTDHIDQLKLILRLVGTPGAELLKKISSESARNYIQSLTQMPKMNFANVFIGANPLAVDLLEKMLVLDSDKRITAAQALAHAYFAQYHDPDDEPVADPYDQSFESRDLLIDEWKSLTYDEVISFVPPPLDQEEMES
Experimental: as §1, §2, §3, §4, §5

PAK2 (h) = PAK2 (h) (Homo sapiens, UniProt Q13177)
Experimental: as §1, §2, §3, §4, §5

EGFR kinase (h) = EGFR kinase (h) (Homo sapiens, UniProt P00533)
Experimental: as §1, §2, §3, §4, §5

JNK1 (h) = JNK1 (h) (Homo sapiens, UniProt P45983)
JNK1 (h), sequence (P45983 whole entry): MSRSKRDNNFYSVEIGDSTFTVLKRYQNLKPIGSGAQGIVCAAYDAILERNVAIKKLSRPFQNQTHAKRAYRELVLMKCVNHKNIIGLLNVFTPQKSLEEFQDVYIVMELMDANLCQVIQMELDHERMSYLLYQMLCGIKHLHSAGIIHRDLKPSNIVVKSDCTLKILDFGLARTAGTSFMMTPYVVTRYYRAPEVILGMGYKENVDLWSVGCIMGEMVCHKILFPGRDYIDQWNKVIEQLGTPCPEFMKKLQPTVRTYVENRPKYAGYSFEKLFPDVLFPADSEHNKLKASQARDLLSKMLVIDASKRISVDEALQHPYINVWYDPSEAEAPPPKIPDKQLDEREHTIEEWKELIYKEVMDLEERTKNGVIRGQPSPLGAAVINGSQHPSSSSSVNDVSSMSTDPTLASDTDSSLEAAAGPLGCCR
Experimental: as §1, §2, §3, §4, §5

NEK2 (h) = NEK2 (h) (Homo sapiens, UniProt P51955)
Experimental: as §1, §2, §3, §4, §5

EphA2 kinase (h) = EphA2 kinase (h) (Homo sapiens, UniProt P29317)
EphA2 kinase (h), sequence (P29317 24-976): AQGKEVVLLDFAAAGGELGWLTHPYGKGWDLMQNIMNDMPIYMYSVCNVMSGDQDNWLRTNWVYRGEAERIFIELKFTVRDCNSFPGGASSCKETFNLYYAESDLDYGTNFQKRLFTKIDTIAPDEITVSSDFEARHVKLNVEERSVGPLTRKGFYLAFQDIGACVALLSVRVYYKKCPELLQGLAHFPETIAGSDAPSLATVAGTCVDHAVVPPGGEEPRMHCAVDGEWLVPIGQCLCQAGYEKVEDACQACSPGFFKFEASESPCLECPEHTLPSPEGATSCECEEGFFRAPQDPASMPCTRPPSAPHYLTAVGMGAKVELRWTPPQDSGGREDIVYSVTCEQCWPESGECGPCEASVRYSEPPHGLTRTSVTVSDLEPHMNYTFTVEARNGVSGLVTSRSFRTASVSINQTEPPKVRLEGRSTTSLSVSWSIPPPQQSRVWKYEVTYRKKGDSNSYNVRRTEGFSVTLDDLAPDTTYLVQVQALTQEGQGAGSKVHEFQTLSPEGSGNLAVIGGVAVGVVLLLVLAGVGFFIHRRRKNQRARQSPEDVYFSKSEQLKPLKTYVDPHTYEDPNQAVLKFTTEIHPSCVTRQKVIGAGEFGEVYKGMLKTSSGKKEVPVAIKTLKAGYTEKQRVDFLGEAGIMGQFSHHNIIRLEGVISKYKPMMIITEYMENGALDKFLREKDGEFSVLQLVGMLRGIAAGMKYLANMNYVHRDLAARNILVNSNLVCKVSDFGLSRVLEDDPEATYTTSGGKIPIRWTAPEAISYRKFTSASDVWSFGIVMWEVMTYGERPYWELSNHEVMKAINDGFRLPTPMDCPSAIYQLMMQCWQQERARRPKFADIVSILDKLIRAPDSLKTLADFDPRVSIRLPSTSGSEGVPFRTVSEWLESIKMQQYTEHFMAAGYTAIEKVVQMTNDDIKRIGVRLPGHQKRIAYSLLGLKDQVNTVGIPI
Experimental: as §1, §2, §3, §4, §5

CHK1 (h) = CHK1 (h) (Homo sapiens, UniProt O14757)
Experimental: as §1, §2, §3, §4, §5

ROCK1 (h) = ROCK1 (h) (Homo sapiens, UniProt Q13464)
ROCK1 (h), sequence (Q13464 whole entry): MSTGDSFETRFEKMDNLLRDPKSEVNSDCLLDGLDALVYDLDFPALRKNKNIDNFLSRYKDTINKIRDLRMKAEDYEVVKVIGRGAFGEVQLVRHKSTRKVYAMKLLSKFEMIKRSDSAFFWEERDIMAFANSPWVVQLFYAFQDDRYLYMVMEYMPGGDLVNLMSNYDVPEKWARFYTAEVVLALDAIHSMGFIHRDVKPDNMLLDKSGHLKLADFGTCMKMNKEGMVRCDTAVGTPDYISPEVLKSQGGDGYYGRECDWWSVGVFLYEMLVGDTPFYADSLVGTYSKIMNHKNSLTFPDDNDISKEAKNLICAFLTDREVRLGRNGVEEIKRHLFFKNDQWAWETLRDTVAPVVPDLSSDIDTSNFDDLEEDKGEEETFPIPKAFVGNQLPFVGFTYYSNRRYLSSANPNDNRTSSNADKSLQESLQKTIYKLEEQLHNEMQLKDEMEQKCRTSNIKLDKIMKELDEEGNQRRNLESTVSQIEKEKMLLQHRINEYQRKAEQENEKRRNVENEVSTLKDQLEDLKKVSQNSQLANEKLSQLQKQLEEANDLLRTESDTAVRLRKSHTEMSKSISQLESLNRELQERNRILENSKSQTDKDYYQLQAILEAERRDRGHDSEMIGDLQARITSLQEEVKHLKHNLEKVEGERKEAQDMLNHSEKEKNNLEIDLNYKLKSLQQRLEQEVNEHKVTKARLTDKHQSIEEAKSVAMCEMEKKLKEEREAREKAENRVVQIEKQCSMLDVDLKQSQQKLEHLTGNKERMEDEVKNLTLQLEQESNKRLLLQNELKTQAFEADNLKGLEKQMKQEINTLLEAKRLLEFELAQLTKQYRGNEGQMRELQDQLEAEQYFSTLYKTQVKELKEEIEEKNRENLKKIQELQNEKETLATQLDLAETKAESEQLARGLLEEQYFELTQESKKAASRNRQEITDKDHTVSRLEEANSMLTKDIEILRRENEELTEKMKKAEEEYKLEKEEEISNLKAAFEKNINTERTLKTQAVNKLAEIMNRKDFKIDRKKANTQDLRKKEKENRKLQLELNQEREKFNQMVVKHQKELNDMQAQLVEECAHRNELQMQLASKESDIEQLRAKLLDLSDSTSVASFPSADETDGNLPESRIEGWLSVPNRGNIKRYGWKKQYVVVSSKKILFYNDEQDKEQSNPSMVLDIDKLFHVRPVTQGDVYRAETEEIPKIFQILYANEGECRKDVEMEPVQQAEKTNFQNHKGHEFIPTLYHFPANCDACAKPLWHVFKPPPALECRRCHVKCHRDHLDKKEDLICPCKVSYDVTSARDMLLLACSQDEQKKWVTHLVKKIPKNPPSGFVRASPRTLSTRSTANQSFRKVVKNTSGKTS
Experimental: as §1, §2, §3, §4, §5

MNK2 (h) = MNK2 (h) (Homo sapiens, UniProt Q9HBH9)
MNK2 (h), sequence (Q9HBH9 whole entry): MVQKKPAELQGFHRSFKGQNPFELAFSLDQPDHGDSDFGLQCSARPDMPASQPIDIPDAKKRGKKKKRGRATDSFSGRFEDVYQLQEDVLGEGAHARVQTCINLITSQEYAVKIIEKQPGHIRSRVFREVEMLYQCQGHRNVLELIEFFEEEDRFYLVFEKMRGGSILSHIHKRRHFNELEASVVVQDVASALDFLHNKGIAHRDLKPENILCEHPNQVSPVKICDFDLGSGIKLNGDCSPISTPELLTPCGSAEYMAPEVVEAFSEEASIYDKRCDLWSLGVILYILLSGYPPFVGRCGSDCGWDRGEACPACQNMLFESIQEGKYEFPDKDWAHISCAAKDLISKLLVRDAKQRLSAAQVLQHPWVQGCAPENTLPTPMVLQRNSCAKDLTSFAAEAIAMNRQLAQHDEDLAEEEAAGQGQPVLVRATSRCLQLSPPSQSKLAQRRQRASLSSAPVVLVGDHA
Experimental: as §1, §2, §3, §4, §5

Pim2 kinase (h) = Pim2 kinase (h) (Homo sapiens, UniProt Q9P1W9)
Experimental: as §1, §2, §3, §4, §5

CDC2/CDK1 (h) (cycB) = CDC2/CDK1 (h) (cycB) (Homo sapiens, UniProt P06493)
CDC2/CDK1 (h) (cycB), sequence (P06493 whole entry): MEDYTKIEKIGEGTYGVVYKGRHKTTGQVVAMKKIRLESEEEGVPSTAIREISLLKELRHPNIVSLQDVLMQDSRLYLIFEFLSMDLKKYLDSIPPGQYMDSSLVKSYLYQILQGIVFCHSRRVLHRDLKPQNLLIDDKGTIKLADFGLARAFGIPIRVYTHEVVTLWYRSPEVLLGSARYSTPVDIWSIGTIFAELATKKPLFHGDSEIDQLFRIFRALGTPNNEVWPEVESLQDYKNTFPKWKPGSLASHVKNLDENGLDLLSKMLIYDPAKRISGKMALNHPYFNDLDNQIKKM
CDC2/CDK1 (h) (cycB), sequence (P14635 whole entry partner): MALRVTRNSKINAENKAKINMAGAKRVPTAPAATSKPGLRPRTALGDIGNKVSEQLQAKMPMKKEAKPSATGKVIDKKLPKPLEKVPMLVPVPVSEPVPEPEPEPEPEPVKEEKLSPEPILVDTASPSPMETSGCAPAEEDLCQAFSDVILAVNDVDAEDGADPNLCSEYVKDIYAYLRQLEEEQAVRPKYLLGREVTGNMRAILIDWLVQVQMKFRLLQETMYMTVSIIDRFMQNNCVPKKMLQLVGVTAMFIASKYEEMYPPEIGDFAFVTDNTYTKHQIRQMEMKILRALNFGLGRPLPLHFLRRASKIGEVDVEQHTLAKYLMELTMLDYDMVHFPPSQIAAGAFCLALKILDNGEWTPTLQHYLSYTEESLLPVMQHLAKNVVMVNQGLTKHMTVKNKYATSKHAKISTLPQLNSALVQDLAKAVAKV
Experimental: as §1, §2, §3, §4, §5

Lck kinase (h) = Lck kinase (h) (Homo sapiens, UniProt P06239)
Experimental: as §1, §2, §3, §4, §5

PDK1 (h) = PDK1 (h) (Homo sapiens, UniProt O15530)
Experimental: as §1, §2, §3, §4, §5

SGK1 (h) = SGK1 (h) (Homo sapiens, UniProt O00141)
Experimental: as §1, §2, §3, §4, §5

SIK (h) = SIK (h) (Homo sapiens, UniProt P57059)
Experimental: as §1, §2, §3, §4, §5

Abl kinase (h) = Abl kinase (h) (Homo sapiens, UniProt P00519)
Experimental: as §1, §2, §3, §4, §5

PAK4 (h) = PAK4 (h) (Homo sapiens, UniProt O96013)
PAK4 (h), sequence (O96013 whole entry): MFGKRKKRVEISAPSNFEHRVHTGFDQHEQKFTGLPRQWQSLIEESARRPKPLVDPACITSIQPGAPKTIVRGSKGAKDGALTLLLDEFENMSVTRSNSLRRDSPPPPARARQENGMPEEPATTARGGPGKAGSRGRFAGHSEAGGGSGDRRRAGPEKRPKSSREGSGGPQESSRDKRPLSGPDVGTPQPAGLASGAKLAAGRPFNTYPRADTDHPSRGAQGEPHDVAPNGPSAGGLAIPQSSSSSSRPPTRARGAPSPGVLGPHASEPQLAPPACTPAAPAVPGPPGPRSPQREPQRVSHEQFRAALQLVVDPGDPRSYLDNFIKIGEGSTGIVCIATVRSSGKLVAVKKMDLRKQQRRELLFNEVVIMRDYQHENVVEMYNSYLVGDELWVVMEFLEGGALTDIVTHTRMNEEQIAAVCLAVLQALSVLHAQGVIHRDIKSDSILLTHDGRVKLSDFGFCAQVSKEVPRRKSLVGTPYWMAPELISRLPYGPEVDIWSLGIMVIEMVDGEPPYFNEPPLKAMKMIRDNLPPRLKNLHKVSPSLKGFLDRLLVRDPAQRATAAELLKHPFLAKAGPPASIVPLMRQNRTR
Experimental: as §1, §2, §3, §4, §5

JAK3 (h) = JAK3 (h) (Homo sapiens, UniProt P52333)
Experimental: as §1, §2, §3, §4, §5

ERK2 (h) (P42mapk) = ERK2 (h) (P42mapk) (Homo sapiens, UniProt P28482)
Experimental: as §1, §2, §3, §4, §5

EphA3 kinase (h) = EphA3 kinase (h) (Homo sapiens, UniProt P29320)
Experimental: as §1, §2, §3, §4, §5

Akt1/PKBalpha (h) = Akt1/PKBalpha (h) (Homo sapiens, UniProt P31749)
Experimental: as §1, §2, §3, §4, §5

PKA (h) = PKA (h) (Homo sapiens, UniProt P17612)
Experimental: as §1, §2, §3, §4, §5

O=C(Nc1ccc(Nc2ccnc3ccccc23)cc1)c1cccc(Nc2ccnc3ccccc23)c1 [Compound 2a]
inhibition at 10 µM (FGFR2 kinase (h)): 1% | inhibition at 10 µM (AurA/Aur2 kinase (h)): -20% | inhibition at 10 µM (p38alpha kinase (h)): -64% | inhibition at 10 µM (PAK2 (h)): -150% | inhibition at 10 µM (EGFR kinase (h)): 36% | inhibition at 10 µM (JNK1 (h)): -91% | inhibition at 10 µM (NEK2 (h)): -72% | inhibition at 10 µM (EphA2 kinase (h)): -184% | inhibition at 10 µM (CHK1 (h)): 16% | inhibition at 10 µM (ROCK1 (h)): -61% | inhibition at 10 µM (MNK2 (h)): -6% | inhibition at 10 µM (Pim2 kinase (h)): -51% | inhibition at 10 µM (CDC2/CDK1 (h) (cycB)): 16% | inhibition at 10 µM (Lck kinase (h)): 23% | inhibition at 10 µM (PDK1 (h)): -169% | inhibition at 10 µM (SGK1 (h)): 28% | inhibition at 10 µM (SIK (h)): 22% | inhibition at 10 µM (Abl kinase (h)): 0% | inhibition at 10 µM (PAK4 (h)): -17% | inhibition at 10 µM (JAK3 (h)): -100% | inhibition at 10 µM (ERK2 (h) (P42mapk)): 9% | inhibition at 10 µM (EphA3 kinase (h)): -57% | inhibition at 10 µM (Akt1/PKBalpha (h)): -178% | inhibition at 10 µM (PKA (h)): 26%
